Experimental data from patent US8017140B2, “Drug-delivery stent formulations for restenosis and vulnerable plaque” (Advanced Cardiovascular System, Inc., priority 2004, dated 2011).

System: thin-cap fibroatheroma (TCFA)
Assay: drug-eluting stent implants in hypercholesterolemic rabbit model of human thin-cap fibroatheroma
Type: in vivo
Details: 28 days; compared to unstented (de novo) TCFAs
Experimental: The MULTI-LINK Penta™ 13 mm was the platform for all DES and metallic stents. Both a slow release and fast release formulation of each drug were tested and the results were evaluated at 28 days. In both FIGS. 4 and 5, the test results concerning the slow release formulation were labeled with “s”, the test results concerning the fast release formulation were labeled with “f”, and the test results data concerning a formulation having both a slow and a fast release of an agent are labeled with “s+f.”

Question: With C[C@]12CC[C@@H]3c4ccc(O)cc4CC[C@H]3[C@@H]1CC[C@@H]2O [beta-estradiol, 17-beta-estradiol] as the compound, how does the percent lipid area read?
Answer: The percent lipid area was “reduce”.

Question: What about the “total fibrous cap thickness” value of the same compound?
Answer: The value was “increase”.

Question: For CO[C@H]1C[C@@H]2CC[C@@H](C)[C@@](O)(O2)C(=O)C(=O)N2CCCC[C@H]2C(=O)O[C@H]([C@H](C)C[C@@H]2CC[C@@H](OCCO)[C@H](OC)C2)CC(=O)[C@H](C)/C=C(\C)[C@@H](O)[C@@H](OC)C(=O)[C@H](C)C[C@H](C)/C=C/C=C/C=C/1C [everolimus, 40-O-(2-hydroxy)ethyl-rapamycin], which percent lipid area is on record?
Answer: The percent lipid area was “reduce”.

Question: What about the “total fibrous cap thickness” value of the same compound?
Answer: Its value is “increase”.
